From patent US10758534B2 (Vertex Pharmaceuticals Incorporated, priority 2014, dated 2020)

Target: T1, F508del (Homo sapiens, UniProt P13569, DEL508-508)
T1 construct: expressed in transfected cells
Assay: Protocol 2: FRET membrane potential optical assay (VIPR), identification of correction compounds
Type: cell-based
Details: F508del CFTR modulator activity; compounds of Table 1; read-out: EC30
Procedure, shortened: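 Mouse NIH3T3 cells, stable F508del; cpd 16 hrs, 37° C., serum-free; pos ctrl 27° C. 16 hrs. Rinse in Krebs Ringers, dye load, then add 10 μM forskolin + 20 μM genistein with Cl^−-free (gluconate) medium; depolarization by FRET voltage dyes.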

T1 sequence (P13569 with tags, fused parts or gaps DEL508-508): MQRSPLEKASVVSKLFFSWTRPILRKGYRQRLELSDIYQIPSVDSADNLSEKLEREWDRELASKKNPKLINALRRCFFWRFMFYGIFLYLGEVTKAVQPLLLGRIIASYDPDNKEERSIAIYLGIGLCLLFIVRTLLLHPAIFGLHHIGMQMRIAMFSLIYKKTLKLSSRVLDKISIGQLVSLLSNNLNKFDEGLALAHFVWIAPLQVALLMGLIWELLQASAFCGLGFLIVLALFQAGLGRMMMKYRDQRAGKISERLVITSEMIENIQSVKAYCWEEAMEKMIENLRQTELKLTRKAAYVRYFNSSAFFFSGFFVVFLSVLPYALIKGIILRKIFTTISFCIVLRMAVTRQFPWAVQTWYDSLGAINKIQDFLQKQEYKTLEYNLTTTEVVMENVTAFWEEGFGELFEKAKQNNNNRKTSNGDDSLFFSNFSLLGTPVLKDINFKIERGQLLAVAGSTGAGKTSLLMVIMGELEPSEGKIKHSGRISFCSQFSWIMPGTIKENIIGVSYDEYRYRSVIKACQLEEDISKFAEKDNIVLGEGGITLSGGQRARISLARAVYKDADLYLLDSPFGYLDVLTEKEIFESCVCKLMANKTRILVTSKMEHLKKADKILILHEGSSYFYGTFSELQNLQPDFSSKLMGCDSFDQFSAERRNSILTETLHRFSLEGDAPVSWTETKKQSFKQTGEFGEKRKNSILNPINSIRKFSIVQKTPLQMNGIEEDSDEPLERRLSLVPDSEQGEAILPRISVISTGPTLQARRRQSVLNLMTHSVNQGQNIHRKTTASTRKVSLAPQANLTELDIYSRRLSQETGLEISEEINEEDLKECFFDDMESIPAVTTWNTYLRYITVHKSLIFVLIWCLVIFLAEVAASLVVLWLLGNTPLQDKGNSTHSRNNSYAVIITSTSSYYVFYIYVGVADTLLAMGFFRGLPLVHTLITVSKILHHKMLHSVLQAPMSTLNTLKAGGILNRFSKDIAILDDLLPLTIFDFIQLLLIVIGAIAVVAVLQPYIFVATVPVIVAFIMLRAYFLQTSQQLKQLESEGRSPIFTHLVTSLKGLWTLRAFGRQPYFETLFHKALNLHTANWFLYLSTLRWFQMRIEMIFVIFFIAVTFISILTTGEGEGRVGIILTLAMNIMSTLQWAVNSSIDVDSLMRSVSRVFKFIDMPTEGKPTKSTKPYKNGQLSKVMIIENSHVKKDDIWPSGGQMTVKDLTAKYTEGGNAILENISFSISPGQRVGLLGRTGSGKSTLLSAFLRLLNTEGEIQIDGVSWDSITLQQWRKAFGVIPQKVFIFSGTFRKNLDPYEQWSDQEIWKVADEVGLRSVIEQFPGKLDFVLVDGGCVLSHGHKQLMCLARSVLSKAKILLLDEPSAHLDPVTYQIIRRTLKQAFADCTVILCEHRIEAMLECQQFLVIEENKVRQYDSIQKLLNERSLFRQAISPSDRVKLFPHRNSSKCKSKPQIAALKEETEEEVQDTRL

Structure (SMILES) | EC30
C[C@@H]1CN(c2nc(-c3cc(F)ccc3F)ccc2C(=O)NS(=O)(=O)c2cccnc2N)C(C)(C)C1 [Compound 2105, N-[(2-amino-3-pyridyl)sulfonyl]-6-(2,5-difluorophenyl)-2-[(4S)-2,2,4-trimethylpyrrolidin-1-yl]pyridine-3-carboxamide] | < 3000 nM
CC1CN(c2ncccc2C(=O)NS(=O)(=O)c2cccc(Nc3c(F)cc(F)cc3F)n2)C(C)(C)C1 (stereo not drawn) [Compound 2106, N—[[6-(2,4,6-trifluoroanilino)-2-pyridyl]sulfonyl]-2-(2,2,4-trimethylpyrrolidin-1-yl)pyridine-3-carboxamide] | < 3000 nM
CC1CN(c2ncccc2C(=O)NS(=O)(=O)c2cccc(N3CCC(Cc4ccccc4)CC3)n2)C(C)(C)C1 (stereo not drawn) [Compound 2107, N—[[6-(4-benzyl-1-piperidyl)-2-pyridyl]sulfonyl]-2-(2,2,4-trimethylpyrrolidin-1-yl)pyridine-3-carboxamide] | < 3000 nM
CC1CN(c2ncccc2C(=O)NS(=O)(=O)c2cccc(Oc3cccc(C(C)C)c3)n2)C(C)(C)C1 (stereo not drawn) [Compound 2108, N—[[6-(3-isopropylphenoxy)-2-pyridyl]sulfonyl]-2-(2,2,4-trimethylpyrrolidin-1-yl)pyridine-3-carboxamide] | < 3000 nM
C[C@@H]1CN(c2nc(-c3cccc(F)c3F)ccc2C(=O)NS(=O)(=O)N2CC[C@H](N)C2)C(C)(C)C1 [Compound 2110, N-[(3S)-3-aminopyrrolidin-1-yl]sulfonyl-6-(2,3-difluorophenyl)-2-[(4S)-2,2,4-trimethylpyrrolidin-1-yl]pyridine-3-carboxamide] | > 10000 nM
CC1CN(c2ncccc2C(=O)NS(=O)(=O)c2cccc(OCc3cnn(-c4ccccc4)c3)n2)C(C)(C)C1 (stereo not drawn) [Compound 2111, N—[[6-[(1-phenylpyrazol-4-yl)methoxy]-2-pyridyl]sulfonyl]-2-(2,2,4-trimethylpyrrolidin-1-yl)pyridine-3-carboxamide] | < 3000 nM
CC1CN(c2ncc(-c3ccc(C4(CO)CC4)cc3)cc2C(=O)NS(=O)(=O)c2cccc(N)n2)C(C)(C)C1 (stereo not drawn) [Compound 2112, N-[(6-amino-2-pyridyl)sulfonyl]-5-[4-[1-(hydroxymethyl)cyclopropyl]phenyl]-2-(2,2,4-trimethylpyrrolidin-1-yl)pyridine-3-carboxamide] | 3000 to 10000 nM
CC(C)COc1cc(F)cc(-c2ccc(C(=O)NS(=O)(=O)C3CCCC3)c(N3C[C@@H](C)CC3(C)C)n2)c1 [Compound 2113, N-cyclopentylsulfonyl-6-(3-fluoro-5-isobutoxy-phenyl)-2-[(4S)-2,2,4-trimethylpyrrolidin-1-yl]pyridine-3-carboxamide] | < 3000 nM
CC(C)Cn1ccc(-c2ccc(C(=O)NS(=O)(=O)c3cccc(N)n3)c(N3C[C@@H](C)CC3(C)C)n2)n1 [Compound 2114, N-[(6-amino-2-pyridyl)sulfonyl]-6-(1-isobutylpyrazol-3-yl)-2-[(4S)-2,2,4-trimethylpyrrolidin-1-yl]pyridine-3-carboxamide] | < 3000 nM
CC1CN(c2ncccc2C(=O)NS(=O)(=O)c2cccc(OCC3COc4ccccc4O3)n2)C(C)(C)C1 (stereo not drawn) [Compound 2115, N—[[6-(2,3-dihydro-1,4-benzodioxin-3-ylmethoxy)-2-pyridyl]sulfonyl]-2-(2,2,4-trimethylpyrrolidin-1-yl)pyridine-3-carboxamide] | < 3000 nM
CC1CCN(c2cccc(S(=O)(=O)NC(=O)c3cccnc3N3CC(C)CC3(C)C)n2)C1 (stereo not drawn) [Compound 2116, N—[[6-(3-methylpyrrolidin-1-yl)-2-pyridyl]sulfonyl]-2-(2,2,4-trimethylpyrrolidin-1-yl)pyridine-3-carboxamide] | < 3000 nM
CC(C)COc1cc(F)cc(-c2ccc(C(=O)NS(=O)(=O)c3cccc(N)n3)c(N3CC(C)C3)n2)c1 [Compound 2117, N-[(6-amino-2-pyridyl)sulfonyl]-6-(3-fluoro-5-isobutoxy-phenyl)-2-(3-methylazetidin-1-yl)pyridine-3-carboxamide] | < 3000 nM
CC1CN(c2ncccc2C(=O)NS(=O)(=O)c2cccc(OCc3ccc(-n4cccn4)cc3)n2)C(C)(C)C1 (stereo not drawn) [Compound 2118, N—[[6-[(4-pyrazol-1-ylphenyl)methoxy]-2-pyridyl]sulfonyl]-2-(2,2,4-trimethylpyrrolidin-1-yl)pyridine-3-carboxamide] | < 3000 nM
CC1CN(c2ncccc2C(=O)NS(=O)(=O)c2cccc(NCCCCc3ccccc3)n2)C(C)(C)C1 (stereo not drawn) [Compound 2119, N—[[6-(4-phenylbutylamino)-2-pyridyl]sulfonyl]-2-(2,2,4-trimethylpyrrolidin-1-yl)pyridine-3-carboxamide] | < 3000 nM
CC(C)Oc1ccc(-c2ccc(C(=O)NS(=O)(=O)N3CC[C@H](N)C3)c(N3C[C@@H](C)CC3(C)C)n2)cc1 [Compound 2120, N-[(3S)-3-aminopyrrolidin-1-yl]sulfonyl-6-(4-isopropoxyphenyl)-2-[(4S)-2,2,4-trimethylpyrrolidin-1-yl]pyridine-3-carboxamide] | < 3000 nM
CC(C)COc1cc(F)cc(-c2ncc(C(=O)NS(=O)(=O)c3cccc(N)n3)c(N3C[C@@H](C)CC3(C)C)n2)c1 [Compound 2121, N-[(6-amino-2-pyridyl)sulfonyl]-2-(3-fluoro-5-isobutoxy-phenyl)-4-[(4S)-2,2,4-trimethylpyrrolidin-1-yl]pyrimidine-5-carboxamide] | < 3000 nM
CCOC(=O)c1ccc(Nc2cccc(S(=O)(=O)NC(=O)c3cccnc3N3CC(C)CC3(C)C)n2)cc1 (stereo not drawn) [Compound 2122, ethyl 4-[[6-[[2-(2,2,4-trimethylpyrrolidin-1-yl)pyridine-3-carbonyl]sulfamoyl]-2-pyridyl]amino]benzoate] | < 3000 nM
CC1CN(c2ncccc2C(=O)NS(=O)(=O)c2cccc(N3CCC(Cc4ccccc4)C3)n2)C(C)(C)C1 (stereo not drawn) [Compound 2123, N—[[6-(3-benzylpyrrolidin-1-yl)-2-pyridyl]sulfonyl]-2-(2,2,4-trimethylpyrrolidin-1-yl)pyridine-3-carboxamide] | < 3000 nM
COc1cc(-c2ccc(C(=O)NS(=O)(=O)c3cccnc3N)c(N3C[C@@H](C)CC3(C)C)n2)ccc1F [Compound 2124, N-[(2-amino-3-pyridyl)sulfonyl]-6-(4-fluoro-3-methoxy-phenyl)-2-[(4S)-2,2,4-trimethylpyrrolidin-1-yl]pyridine-3-carboxamide] | < 3000 nM
C[C@@H]1CN(c2nc(-c3ccc4[nH]ccc4c3)ccc2C(=O)NS(=O)(=O)c2cccnc2N)C(C)(C)C1 [Compound 2125, N-[(2-amino-3-pyridyl)sulfonyl]-6-(1H-indol-5-yl)-2-[(4S)-2,2,4-trimethylpyrrolidin-1-yl]pyridine-3-carboxamide] | < 3000 nM
Cc1ccc(-c2ccc(C(=O)NS(=O)(=O)c3cccnc3N)c(N3C[C@@H](C)CC3(C)C)n2)c2ccccc12 [Compound 2126, N-[(2-amino-3-pyridyl)sulfonyl]-6-(4-methyl-1-naphthyl)-2-[(4S)-2,2,4-trimethylpyrrolidin-1-yl]pyridine-3-carboxamide] | < 3000 nM
Cc1cc(C)cc(-c2ccc(C(=O)NS(=O)(=O)c3cccnc3N)c(N3C[C@@H](C)CC3(C)C)n2)c1 [Compound 2127, N-[(2-amino-3-pyridyl)sulfonyl]-6-(3,5-dimethylphenyl)-2-[(4S)-2,2,4-trimethylpyrrolidin-1-yl]pyridine-3-carboxamide] | < 3000 nM
CC(C)COc1cc(F)cc(-c2ccc(C(=O)NS(=O)(=O)c3cccc(N)n3)c(N3CC(F)C3)n2)c1 [Compound 2128, N-[(6-amino-2-pyridyl)sulfonyl]-2-(3-fluoroazetidin-1-yl)-6-(3-fluoro-5-isobutoxy-phenyl)pyridine-3-carboxamide] | 3000 to 10000 nM
CC1CN(c2ncc(C3=CCN(C(=O)OC(C)(C)C)CC3)cc2C(=O)NS(=O)(=O)c2cccc(N)n2)C(C)(C)C1 (stereo not drawn) [Compound 2129, tert-butyl 4-[5-[(6-amino-2-pyridyl)sulfonylcarbamoyl]-6-(2,2,4-trimethylpyrrolidin-1-yl)-3-pyridyl]-3,6-dihydro-2H-pyridine-1-carboxylate] | < 3000 nM
CCCC(C)(C)Oc1cccc(S(=O)(=O)NC(=O)c2cccnc2N2CC(C)CC2(C)C)n1 (stereo not drawn) [Compound 2130, N—[[6-(1,1-dimethylbutoxy)-2-pyridyl]sulfonyl]-2-(2,2,4-trimethylpyrrolidin-1-yl)pyridine-3-carboxamide] | < 3000 nM
CC1CN(c2ncccc2C(=O)NS(=O)(=O)c2cccc(NCC3CCCO3)n2)C(C)(C)C1 (stereo not drawn) [Compound 2131, N—[[6-(tetrahydrofuran-2-ylmethylamino)-2-pyridyl]sulfonyl]-2-(2,2,4-trimethylpyrrolidin-1-yl)pyridine-3-carboxamide] | > 10000 nM
Cc1ccc(-c2ccc(C(=O)NS(=O)(=O)c3cccnc3N)c(N3C[C@@H](C)CC3(C)C)n2)cc1 [Compound 2132, N-[(2-amino-3-pyridyl)sulfonyl]-6-(p-tolyl)-2-[(4S)-2,2,4-trimethylpyrrolidin-1-yl]pyridine-3-carboxamide] | < 3000 nM
Cc1cccc(-c2ccc(C(=O)NS(=O)(=O)c3ccccc3)c(N3C[C@@H](C)CC3(C)C)n2)c1O [Compound 2133, N-(benzenesulfonyl)-6-(2-hydroxy-3-methyl-phenyl)-2-[(4S)-2,2,4-trimethylpyrrolidin-1-yl]pyridine-3-carboxamide] | < 3000 nM
CCOC(=O)c1ccc(OC)c(-c2cnc(N3CC(C)CC3(C)C)c(C(=O)NS(=O)(=O)c3cccc(N)n3)c2)c1 (stereo not drawn) [Compound 2134, ethyl 3-[5-[(6-amino-2-pyridyl)sulfonylcarbamoyl]-6-(2,2,4-trimethylpyrrolidin-1-yl)-3-pyridyl]-4-methoxy-benzoate] | < 3000 nM
COCCCNc1cccc(S(=O)(=O)NC(=O)c2cccnc2N2CC(C)CC2(C)C)n1 (stereo not drawn) [Compound 2135, N—[[6-(3-methoxypropylamino)-2-pyridyl]sulfonyl]-2-(2,2,4-trimethylpyrrolidin-1-yl)pyridine-3-carboxamide] | 3000 to 10000 nM
